Data from patent US20100063282A1, “Glucocorticoid Mimetics, Methods of Making Them, Pharmaceutical Compositions, and Uses Thereof” (BOEHRINGER INGELHEIM INTERNATIONAL GMBH, priority 2007, published 2010).

Columns and labels:
[1] = molecular target: T1, human glucocorticoid receptor (GR) complex (Homo sapiens, UniProt P04150); assay: Glucocorticoid receptor competitive binding assay (fluorescence polarization); settings: competition with TAMRA-labeled dexamethasone, GR-containing baculovirus lysate, 1 hour at room temperature
T1 construct: made in house; host or cells: insect cells (baculovirus expression); used as crude lysate
T1 sequence (P04150 1-777): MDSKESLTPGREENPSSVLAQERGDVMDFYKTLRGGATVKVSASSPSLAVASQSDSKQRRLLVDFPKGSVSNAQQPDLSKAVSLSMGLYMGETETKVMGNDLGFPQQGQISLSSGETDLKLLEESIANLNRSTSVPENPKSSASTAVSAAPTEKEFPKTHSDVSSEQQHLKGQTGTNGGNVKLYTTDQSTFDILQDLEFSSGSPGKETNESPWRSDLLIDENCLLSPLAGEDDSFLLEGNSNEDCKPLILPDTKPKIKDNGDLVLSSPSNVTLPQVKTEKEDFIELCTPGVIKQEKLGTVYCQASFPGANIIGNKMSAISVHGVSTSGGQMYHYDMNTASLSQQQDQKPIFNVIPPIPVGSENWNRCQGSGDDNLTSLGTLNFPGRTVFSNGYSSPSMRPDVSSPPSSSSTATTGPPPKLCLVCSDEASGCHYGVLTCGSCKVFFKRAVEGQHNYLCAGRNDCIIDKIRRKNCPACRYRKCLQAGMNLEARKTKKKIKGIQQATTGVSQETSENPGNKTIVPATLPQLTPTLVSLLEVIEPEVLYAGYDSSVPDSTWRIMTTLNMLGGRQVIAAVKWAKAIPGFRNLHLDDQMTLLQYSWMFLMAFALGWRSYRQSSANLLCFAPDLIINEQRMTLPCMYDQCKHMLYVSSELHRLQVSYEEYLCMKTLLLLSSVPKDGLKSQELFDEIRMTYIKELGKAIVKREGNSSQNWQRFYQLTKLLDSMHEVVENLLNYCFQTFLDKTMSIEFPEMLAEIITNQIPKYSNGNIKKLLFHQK
Description: Compounds of the invention were evaluated for binding to the steroid receptor by a fluorescence polarization competitive binding assay. Detailed descriptions for preparation of recombinant glucocorticoid receptor (GR) complex used in the assay is described in U.S. Patent Application Publication No. US 2003/0017503, filed May 20, 2002, and incorporated herein by reference in its entirety. Preparation of the tetramethylrhodamine (TAMRA)-labeled dexamethasone probe was accomplished using a standard literature procedure (M. Pons et al., J. Steroid Biochem., 1985, 22, pp. 267-273).
The affinity of the probe for the steroid receptor was then determined in a titration experiment. The fluorescence polarization value of the probe in assay buffer was measured on an SLM-8100 fluorometer using the excitation and emission maximum values described above. Aliquots of expression vector lysate were added and fluorescence polarization was measured after each addition until no further change in polarization value was observed. Non-linear least squares regression analysis was used to calculate the dissociation constant of the probe from the polarization values obtained for lysate binding to the probe.
This assay uses fluorescence polarization (FP) to quantitate the ability of test compounds to compete with tetramethylrhodamine (TAMRA)-labeled dexamethasone for binding to a human glucocorticoid receptor (GR) complex prepared from an insect expression system. The assay buffer was: 10 mM TES, 50 mM KCl, 20 mM Na2MoO4.2H2O, 1.5 mM EDTA, 0.04% w/v CHAPS, 10% v/v glycerol, 1 mM dithiothreitol, pH 7.4. Test compounds were dissolved to 1 mM in neat DMSO and then further diluted to 10× assay concentration in assay buffer supplemented with 10% v/v DMSO. Test compounds were serially diluted at 10× assay concentrations in 10% DMSO-containing buffer in 96-well polypropylene plates. Binding reaction mixtures were prepared in 96-well black Dynex microtiter plates by sequential addition of the following assay components to each well: 15 μL of 10× test compound solution, 85 μL of GR-containing baculovirus lysate diluted 1:170 in assay buffer, and 50 μL of 15 nM TAMRA-labeled dexamethasone. Positive controls were reaction mixtures containing no test compound; negative controls (blanks) were reaction mixtures containing 0.7 μM to 2 μM dexamethasone. The binding reactions were incubated for 1 hour at room temperature and then read for fluorescence polarization in the LJL Analyst set to 550 nm excitation and 580 nm emission, with the Rhodamine 561 dichroic mirror installed. IC50 values were determined by iterative non-linear curve fitting of the FP signal data to a 4-parameter logistic equation.

glucocorticoid receptor = assay: Glucocorticoid receptor function, one or more of the above assays; assay type: cell-based; settings: in one or more of the above assays, assay not specified
Description: Dexamethasone, a synthetic ligand to the glucocorticoid receptor (GR), induces expression of aromatase in human foreskin fibroblast cells. The activity of aromatase is measured by the conversion of testosterone to estradiol in culture media.
Human foreskin fibroblast cells (ATCC Cat. No. CRL-2429, designation CCD112SK) are plated on 96 well plates at 50,000 cells per well 5 days before use, in Iscove's Modified Dulbecco's Media (GibcoBRL Life Technologies Cat No. 12440-053) supplemented with 10% charcoal filtered FBS (Clonetech Cat No. SH30068) and Gentamycin (GibcoBRL Life Technologies Cat. No. 15710-064). On the day of the experiment, the media in the wells is replaced with fresh media. Cells are treated with test compounds to final concentrations of 10^−5 M to 10^−8 M, and testosterone to a final concentration of 300 ng/mL. Each well has a total volume of 100 μL. Samples are made in duplicates. […] Estradiol in the supernatant is measured using ELISA kits for estradiol (made by ALPCO, obtained from American Laboratory Products Cat. No. 020-DR-2693) according to the manufacture's instruction. […] The extent of aromatase induction by test compounds is expressed as a relative percentage to dexamethasone. […]
Human foreskin fibroblast cells (ATCC Cat. No. CRL-2429) are plated on 96 well plates at 5,000 cells per well the day before use, in Iscove's Modified Dulbecco's Media (GibcoBRL Life Technologies Cat. No. 12440-053) supplemented with 10% charcoal filtered FBS (Clonetech Cat. No. SH30068) and Gentamycin (GibcoBRL Life Technologies Cat. No. 15710-064). […] IL-6 levels in the supernatants are determined by the ELISA kits for IL-6 (MedSystems Diagnostics GmbH, Vienna, Austria, Cat. No. BMS213TEN) according to manufacture's instructions. […]
H4-II-E-C3 cells were incubated overnight in 96 well plates (20,000 cells/100 μL/well) in MEM medium containing 10% heat inactivated FBS and 1% nonessential amino acids. […] After 18 hours, the cells were lysed in a buffer containing 0.1% Triton X-100 and the TAT activity was measured in a photometric assay using tyrosine and alpha-ketoglutarate as substrates. […]

| IC50 [1] | activity as an agonist of the glucocorticoid receptor function (glucocorticoid receptor) | Compound |
| --- | --- | --- |
| ≤ 100 nM | – | Cc1cc(C)c(S(=O)(=O)NC(CSc2ncccc2C(F)(F)F)C(F)(F)F)c(C)c1 (centres unmarked) [2,4,6-Trimethyl-N-[2,2,2-trifluoro-1-(3-trifluoromethylpyridin-2-ylsulfanylmethyl)ethyl]benzenesulfonamide] |
| ≤ 100 nM | – | Cc1cc(C)c(S(=O)(=O)NC(CSc2ccc([N+](=O)[O-])cn2)C(F)(F)F)c(C)c1 (centres unmarked) [2,4,6-Trimethyl-N-[2,2,2-trifluoro-1-(5-nitropyridin-2-ylsulfanylmethyl)ethyl]benzenesulfonamide] |
| ≤ 100 nM | – | Cc1cc(C)c(S(=O)(=O)NC(CNc2cccc3cnccc23)C(F)(F)F)c(C)c1 (centres unmarked) [2,4,6-Trimethyl-N-[2,2,2-trifluoro-1-(isoquinolin-5-ylaminomethyl)ethyl]benzenesulfonamide] |
| ≤ 100 nM | – | Cc1cc(C)c(S(=O)(=O)NC(COc2cccc3cnccc23)C(F)(F)F)c(C)c1 (centres unmarked) [2,4,6-Trimethyl-N-[2,2,2-trifluoro-1-(isoquinolin-5-yloxymethyl)ethyl]benzenesulfonamide] |
| ≤ 100 nM | – | Cc1cc(C)c(S(=O)(=O)NC(CSc2ccccn2)C(F)(F)F)c(C)c1 (centres unmarked) [2,4,6-Trimethyl-N-[2,2,2-trifluoro-1-(pyridin-2-ylsulfanylmethyl)ethyl]benzenesulfonamide] |
| ≤ 100 nM | – | Cc1cc(C)c(S(=O)(=O)NC(CNc2cccc3ncccc23)C(F)(F)F)c(C)c1 (centres unmarked) [2,4,6-Trimethyl-N-[2,2,2-trifluoro-1-(quinolin-5-ylaminomethyl)ethyl]benzenesulfonamide] |
| ≤ 100 nM | – | Cc1cc(C)c(S(=O)(=O)NC(COc2cccc3ncccc23)C(F)(F)F)c(C)c1 (centres unmarked) [2,4,6-Trimethyl-N-[2,2,2-trifluoro-1-(quinolin-5-yloxymethyl)ethyl]benzenesulfonamide] |
| ≤ 100 nM | – | Cc1cc(C)c(S(=O)(=O)NC(CNc2cccc3ccc(C)nc23)C(F)(F)F)c(C)c1 (centres unmarked) [2,4,6-Trimethyl-N-{2,2,2-trifluoro-1-[(2-methylquinolin-8-ylamino)methyl]ethyl}benzenesulfonamide] |
| ≤ 100 nM | shown activity as an agonist | CC[C@@H](CNc1ccc2c(cnn2-c2ccc(F)cc2)c1)NS(=O)(=O)c1c(N)cc(Cl)cc1Cl [2-Amino-4,6-dichloro-N—((S)-1-{[1-(4-fluorophenyl)-1H-indazol-5-ylamino]methyl}propyl)benzenesulfonamide] |
| ≤ 100 nM | shown activity as an agonist | CC[C@@H](CNc1cccc2[nH]ccc12)NS(=O)(=O)c1c(N)cc(Cl)cc1Cl [2-Amino-4,6-dichloro-N—{(S)-1-[(1H-indol-4-ylamino)methyl]propyl}benzenesulfonamide] |
| ≤ 100 nM | – | Cc1cc(C)c(S(=O)(=O)NC(CSc2nc(C)cc(C(F)(F)F)c2C#N)C(F)(F)F)c(C)c1 (centres unmarked) [N-[1-(3-Cyano-6-methyl-4-trifluoromethylpyridin-2-ylsulfanylmethyl)-2,2,2-trifluoroethyl]-2,4,6-trimethylbenzenesulfonamide] |
| ≤ 100 nM | – | CC[C@@H](CNc1ccc2c(cnn2-c2ccc(F)cc2)c1)NS(=O)(=O)c1c(C)cc(C)cc1C [N—((S)-1-{[1-(4-Fluorophenyl)-1H-indazol-5-ylamino]methyl}propyl)-2,4,6-trimethylbenzenesulfonamide] |
| ≤ 100 nM | shown activity as an agonist | CC[C@@H](CNc1cccc2[nH]ccc12)NS(=O)(=O)c1c(C)cc(C)cc1C [N—{(S)-1-[(1H-Indol-4-ylamino)methyl]propyl}-2,4,6-trimethylbenzenesulfonamide] |
| ≤ 100 nM | – | CC[C@@H](CNc1cccc2cc[nH]c12)NS(=O)(=O)c1c(C)cc(C)cc1C [N—{(S)-1-[(1H-Indol-7-ylamino)methyl]propyl}-2,4,6-trimethylbenzenesulfonamide] |
